Like-named read-outs stand apart in the source and are kept apart here.
Columns and labels:
Assay in all cases: hOR assay (GloSensor cAMP luciferase), dose-response
Assay type in all cases: cell-based
OR10H3 = biological target: T1, OR10H3 (Homo sapiens, UniProt O60404); conditions: OR10H3, with or without the TAR-Tat system
T1 construct: Lucy tag (N); expressed in transfected cells; host or cells: Flp-In T-REx-293 cells stably expressing RTP1S, Gαolf and Ric8-b
T1 sequence (O60404 1-316): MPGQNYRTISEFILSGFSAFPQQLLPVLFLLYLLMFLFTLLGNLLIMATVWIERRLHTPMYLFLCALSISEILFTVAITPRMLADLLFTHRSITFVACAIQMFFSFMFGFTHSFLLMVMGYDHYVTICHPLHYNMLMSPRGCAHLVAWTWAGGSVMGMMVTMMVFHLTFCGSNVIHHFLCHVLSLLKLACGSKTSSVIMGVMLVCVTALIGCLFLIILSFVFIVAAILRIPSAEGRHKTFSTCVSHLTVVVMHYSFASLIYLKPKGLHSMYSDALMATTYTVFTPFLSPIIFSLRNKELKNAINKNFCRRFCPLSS
Procedure: (§1) Flp-In T-REx-293 cells stably expressing accessory proteins (RTP1S, Gαolf, and Ric8-b) were established using the Flp-In T-REx system. Accessory proteins-expressing cells were maintained in high-glucose Dulbecco’s modified Eagle medium (Sigma-Aldrich) containing 10% fetal bovine serum (Biowest) and 1% antibiotic–antimycotic (Nacalai tesque) at 37°C with 5% CO2.
(§2) The GloSensor™ Technology (Promega) was used for the luciferase assay of the hOR response. As the negative control, cells that were transfected by the pBApo-CMV neo vector and pHEK293 Ultra Expression Vector I were used as mock cells. hOR/pHEK and hOR/pBApo (50 ng/well) were transfected into the accessory proteins-expressing cell line (40000 cells/well) using Lipofectamine 2000 (Thermo Fisher Scientific) (400 nL/well) along with pGlosensor™-22F cAMP biosensor plasmid (Promega) (50 ng/well) in a 96-well plate. At 28 h posttransfection, the cells were washed with an assay buffer (140 mM NaCl, 10 mM HEPES, 5 mM KCl, 1 mM CaCl2・2H2O, 10 mM D-glucose, pH 7.5) and replaced with the assay buffer (50 μL/well) containing 2% GloSensor cAMP substrate and preincubated for 1 h at 25°C. Then, the assay buffer was added (130 μL/well). After 10 min of equilibration, the luminescence was measured (L0). Odorants diluted in 10% DMSO/assay buffer were treated (20 μL/well). After 9 min, the luminescence was measured (L9min). First, all the L9min values were subtracted by the L0 value (ΔL) and divided by the L0 value (ΔL/L0). The concentration range of the odorants was different for each odorant, but the minimum was 0.01 μM and the maximum was 3 mM. For all hORs, luciferase assays with hOR/pBApo and hOR/pHEK were conducted in the same 96-well plate each time, and luminescence was normalized to a maximum value of 100. Dose–response curve images were graphed using the Graph Pad Prism 9 software (Graph Pad Software).

OR2W1 = biological target: T2, OR2W1 (Homo sapiens, UniProt Q9Y3N9); conditions: for EC50: read-out: EC50 of n-hexanal concentration-response relationship
T2 construct: Lucy tag (N); FLAG (N); Rho tag (N); expressed in transfected cells; host or cells: Flp-In T-REx-293 cells stably expressing RTP1S, Gαolf and Ric8-b
T2 sequence (Q9Y3N9 1-320): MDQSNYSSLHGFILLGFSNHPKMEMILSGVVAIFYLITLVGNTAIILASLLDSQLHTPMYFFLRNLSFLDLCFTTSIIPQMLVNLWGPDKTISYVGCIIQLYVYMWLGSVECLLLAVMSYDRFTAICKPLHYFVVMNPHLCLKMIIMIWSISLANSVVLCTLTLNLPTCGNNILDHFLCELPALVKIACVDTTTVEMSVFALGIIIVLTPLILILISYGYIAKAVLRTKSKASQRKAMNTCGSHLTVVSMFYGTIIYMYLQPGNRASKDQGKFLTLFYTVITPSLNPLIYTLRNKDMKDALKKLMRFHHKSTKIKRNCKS
Procedure: as §1, §2

OR56B1 = biological target: T3, OR56B1 (Homo sapiens, UniProt Q8NGI3); conditions: OR56B1, with or without the TAR-Tat system
T3 construct: Lucy tag (N); expressed in transfected cells; host or cells: Flp-In T-REx-293 cells stably expressing RTP1S, Gαolf and Ric8-b
T3 sequence (Q8NGI3 1-324): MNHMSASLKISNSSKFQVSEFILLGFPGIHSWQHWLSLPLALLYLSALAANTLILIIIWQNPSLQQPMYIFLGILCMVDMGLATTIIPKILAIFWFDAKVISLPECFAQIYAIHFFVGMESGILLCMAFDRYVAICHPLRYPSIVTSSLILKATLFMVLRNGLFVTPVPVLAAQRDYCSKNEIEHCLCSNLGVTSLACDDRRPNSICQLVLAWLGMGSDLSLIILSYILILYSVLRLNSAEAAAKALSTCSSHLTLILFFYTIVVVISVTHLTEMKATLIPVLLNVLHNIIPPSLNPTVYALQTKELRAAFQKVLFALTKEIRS
Procedure: as §1, §2

OR5M3 = biological target: T4, OR5M3 (Homo sapiens, UniProt Q8NGP4); conditions: OR5M3, with or without the TAR-Tat system
T4 construct: Lucy tag (N); FLAG (N); Rho tag (N); expressed in transfected cells; host or cells: Flp-In T-REx-293 cells stably expressing RTP1S, Gαolf and Ric8-b
T4 sequence (Q8NGP4 1-307): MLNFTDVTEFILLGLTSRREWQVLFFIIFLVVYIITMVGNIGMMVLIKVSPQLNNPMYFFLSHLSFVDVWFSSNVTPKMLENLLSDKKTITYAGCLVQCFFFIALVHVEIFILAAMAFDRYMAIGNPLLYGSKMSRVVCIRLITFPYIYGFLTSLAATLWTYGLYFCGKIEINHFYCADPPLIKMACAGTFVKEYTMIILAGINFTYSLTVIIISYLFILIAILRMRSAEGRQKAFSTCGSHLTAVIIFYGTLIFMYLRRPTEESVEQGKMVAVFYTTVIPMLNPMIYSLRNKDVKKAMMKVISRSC
Procedure: as §1, §2

OR5P3 = biological target: T5, OR5P3 (Homo sapiens, UniProt Q8WZ94); conditions: for EC50: read-out: EC50 of n-hexanal concentration-response relationship
T5 construct: Lucy tag (N); FLAG (N); Rho tag (N); expressed in transfected cells; host or cells: Flp-In T-REx-293 cells stably expressing RTP1S, Gαolf and Ric8-b
T5 sequence (Q8WZ94 1-311): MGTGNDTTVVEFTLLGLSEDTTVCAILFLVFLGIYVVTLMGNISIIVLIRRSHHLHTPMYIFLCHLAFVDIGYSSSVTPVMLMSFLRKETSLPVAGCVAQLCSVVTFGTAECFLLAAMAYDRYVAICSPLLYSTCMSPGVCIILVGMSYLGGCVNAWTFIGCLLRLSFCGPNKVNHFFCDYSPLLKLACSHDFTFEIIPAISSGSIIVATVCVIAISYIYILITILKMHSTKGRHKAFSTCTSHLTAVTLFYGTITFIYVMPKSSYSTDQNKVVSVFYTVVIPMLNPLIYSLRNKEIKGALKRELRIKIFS
Procedure: as §1, §2

CCCCCC=O [n-hexanal]
concentration-dependent response to n-hexanal (OR10H3): no concentration-dependent response | concentration-dependent response to n-hexanal (OR2W1; OR2W1, with and without the TAR-Tat system): Concentration-dependent responses were observed | EC50 (OR2W1; OR2W1/pBApo (without TAR-Tat system)): 21 µM | EC50 (OR2W1; OR2W1/pHEK (with TAR-Tat system)): 60 µM | increase of maximum value of dose-response curve with the TAR-Tat system (OR2W1; OR2W1/pHEK versus OR2W1/pBApo): 2.0 fold | concentration-dependent response to n-hexanal (OR56B1): no concentration-dependent response | concentration-dependent response to n-hexanal (OR5M3): no concentration-dependent response | concentration-dependent response to n-hexanal (OR5P3; OR5P3, with and without the TAR-Tat system): Concentration-dependent responses were observed | EC50 (OR5P3; OR5P3/pBApo (without TAR-Tat system)): 191 µM | EC50 (OR5P3; OR5P3/pHEK (with TAR-Tat system)): 672 µM | increase of maximum value of dose-response curve with the TAR-Tat system (OR5P3; OR5P3/pHEK versus OR5P3/pBApo): 4.1 fold

— paper PMC11198769, “Enhancement of transcription efficiency by TAR-Tat system increases the functional expression of human olfactory receptors” (PLOS ONE, 2024)
